Results published in publication PMC8998618, “A Pharmacokinetic and Metabolism Study of the TRPC6 Inhibitor SH045 in Mice by LC-MS/MS” (International Journal of Molecular Sciences, 2022).

Test: time-dependent metabolization (stability) in MLM and IVIVE of hepatic clearance
Assay type: in vitro ADME, mouse
Source text: In the widely used concept of the “well-stirred” model, liver represents a single uniform compartment. It is further assumed that the concentration of unbound SH045 leaving the liver is in equilibrium with its unbound concentration in hepatocytes (detailed calculation in Supplementary Materials SM8, summarized values in SR4). Briefly, microsomal intrinsic clearance was converted to hepatic clearance: CLhep = Q × fu × CLint/Q + (fu × CLint), where fu is the unbound fraction of SH045 in blood and Q is the hepatic blood flow in mice.
For this purpose, remaining concentrations of SH045 in microsomes were determined to calculate the intrinsic microsomal clearance CLint,micr, the intrinsic clearance CLint, equal to the maximum enzyme activity of liver and for in vitro-in vivo exploration of hepatic clearance CLhep in mouse and human using the well-stirred model. The algorithm for these calculations is given in detail in the Supplementary Materials SM8. […]
All microsome incubations were stopped with 1 mL ice -cold ACN containing 5 µg/mL IS, vortexed for 1 min and cooled at -20 °C for 10 min. […]
SM6 Metabolization studies in MLM and HLM and calculation of hepatic clearance For determination of vmax and Km of the NADPH-dependent microsomal depletion of SH045, the following incubations were performed for MLM and HLM, respectively. 2 µL SH045 (final concentration 0.5 – 100 µM, in triplicate), 12.5 µL HLM or MLM (finally 0.5 mg/mL protein) and 460.5 µL DPBS were vortexed and preincubated 37 °C for 5 min. The reaction was initiated by addition of 25 µL analogously pre-incubated β-NADPH (finally: 1 mM).
After gentle shaking at 37 °C and 300 rpm for 10 min, incubations were terminated and samples prepared as described […]
Testosterone (10 µM in ACN/DPBS 2/3, v/v) instead of SH045 was used as positive control and analyzed by an appropriate HPLC method with UV detection.
Negative controls contained either no NADPH, no MLM or HLM or none of them. […]
Menten constant Km were calculated using Lineweaver-Burk transformation. From Km an appropriate drug concentration of 2 µM was derived as prerequisite for experimental in vitro determination of t1/2 required for further exploration of clearance.
For this purpose, microsomes were incubated as described above with 2 µM SH045 for indicated time intervals up to 30 min. The remaining concentrations of SH045 were determined to calculate the intrinsic microsomal clearance CLint,micr the intrinsic clearance CLint, equal to the maximum enzyme activity of liver and for in vitro-in vivo exploration of hepatic clearance CLhep in mouse and human using the “well-stirred” model [6].
SM7 Identification of metabolism pathways and metabolites of SH045 in MLM and HLM To determine possible metabolism pathways of SH045 in MLM and HLM, an in vitro inhibition approach was performed with CYP-isoform specific inhibitors (final concentration): ciprofloxacin (CYP1A2; 150 µM), pilocarpine (CYP2A6; 50 µM), ticlopidine (CYP2B6; 5 µM), quercetin (CYP2C8; 2 µM), sulfaphenazole (CYP2C9; 10 µM), fluvoxamine (CYP2C19; 10 µM), quinidine (CYP2D6; 10 µM), 4-methyl pyrazole (CYP2E1; 100 µM) and ketoconazole (CYP3A4; 1 µM) [7, 8]. The inhibitors were dissolved in DPBS and appropriate methanol, the organic solvents not […]
SH045 (2 µM) was pre-incubated with MLM or HLM (0.5 mg/mL) and the specific inhibitor for 5 min at 37 °C in DPBS.
Ticlopidine, a time-dependent inhibitor was pre-incubated for 15 min [9]. Incubations were performed in triplicate with NADPH (1 mM) in a final volume of 500 µL for 2 min and 10 min with pre-incubated MLM and HLM, respectively, terminated with 1 mL ice-cold ACN and processed as described above for LC-MS/MS. A sample without any inhibitor served as a positive control. Incubations with an equal volume of DMSO instead of SH045 and samples without NADPH, MLM or HLM or both, respectively, served as negative controls.
To explore metabolites of SH045 formed by microsomes, D PBS, alamethicin (25 µg/mL) [10] and MLM or HLM (1.0 […]

microsomal CLint at 2 µM (CD-1, mouse, liver microsomes, mouse liver microsomes, read-out: CLint, micr): 1170 µL/min/mg
CLint scaled at 2 µM (CD-1, mouse, liver microsomes, mouse, scaled from CLint,micr): 276 L/h/kg
half-life at 2 µM (male, CD-1, pH 7.4, mouse liver microsomes 0.5 mg/mL, 2 µM SH045, NADPH): 1.18 min
CLint, micr (mouse liver microsomes): 1173.6 µL/min/mg
CLhep (mouse, predicted by well-stirred model, fu 0.3%, Q 90 mL/min/kg): 0.717 L/h/kg
CLint (mouse, scaled from CLint,micr): 275.68 L/h/kg
SMILES: C=C[C@@](C)(O)CC[C@H]1C(=C)C[C@H](OC(=O)NC)[C@H]2C(C)(C)CCC[C@]12C [SH045, (1S,4S,4aR,8aS)-4-((S)-3-Hydroxy-3-methylpent-4-en-1-yl)-4a,8,8-trimethyl-3-methylenedecahydronaphthalen-1-yl methylcarbamate]
